Laboratory results as given in article PMC11477482 (Molecules, 2024).
Entries after “also recorded” stand apart in the source; their conditions may differ.

Experiments:
[1] = DSC thermal analysis and compatibility with excipients; type: physicochemical; conditions: for compatibility with Carbopol 980 (CP) / compatibility with EDTA / compatibility with hydroxyethylcellulose (HEC) / compatibility with miglyol 812 (MIG) / compatibility with stearyl alcohol (SA) / compatibility with tocopherol (TP): 1:1 (w/w) mixture; for Tonset / Tpeak / ΔH: compound alone, 10 °C/min, nitrogen
Experimental: A differential scanning calorimeter (DSC) 200F3 Maia (Netzsh-Gerätebau GmbH, Selb, Germany) was used for thermal analysis of the ingredients and mixtures. Typical excipients of topical formulations with different functions were selected for this study. The physical mixtures between compounds and the excipients were prepared in a ratio of 1:1 (w/w). Individual samples and the physical mixtures were weighed directly in the pierced DSC aluminum pan and scanned in the temperature range of 20–400 °C under nitrogen atmosphere with flow of 40 mL/min, with a heating rate of 10 °C/min. An empty aluminum pan was used as reference. The onset temperature and melting enthalpy (ΔH) were calculated using Proteus Analysis software (Version 6.1, NETZSCH-Gerätebau GmbH, Germany). The DSC cell was calibrated (sensitivity and temperature calibration) with Hg (m.p. −38.8 °C), In (m.p. 156.6 °C), Sn (m.p. 231.9 °C), Bi (m.p. 271.4 °C), Zn (m.p. 419.5 °C), and CsCl (m.p. 476.0 °C) as standards.

[2] = tested on: NO production in LPS-stimulated RAW 264.7 macrophages; assay: NO production in LPS-stimulated macrophages (Griess assay); type: cell-based, mouse; conditions: LPS 100 ng/mL, 24 h
Experimental: The human keratinocytes (HaCaT, CLS 300493, Eppelheim, Germany) cell line was cultured with Dulbecco’s Modified Eagle’s Medium (DMEM) (Sigma-Aldrich, St. Louis, MO, USA), supplemented with 10% (v/v) of heat-inactivated fetal bovine serum (FBS), 1% (v/v) antibiotic solution (from a 10,000 U/mL penicillin and 10,000 μg/mL streptomycin stock) (Gibco, Carlsbad, CA, USA), 3.7 g/L sodium bicarbonate, and 1 mM sodium pyruvate (Sigma-Aldrich, St. Louis, MO, USA). The cell culture of keratinocytes was detached with EDTA solution 1X (Sigma-Aldrich, St. Louis, MO, USA) when the cells reached 70–80% confluence in cell culture flasks. The mouse macrophage cell line (RAW 264.7, ATCC TIB-71, Manassas, VA, USA) was cultured in DMEM supplemented with 10% (v/v) non-inactivated FBS, 1% (v/v) antibiotic solution, 1.5 g/L sodium bicarbonate, and 1 mM sodium pyruvate. Macrophages were mechanically detached with a cell scraper and subcultured in (1:10) proportion of cellular suspension to a final volume of DMEM. The human monocytic cell line THP-1 (ATCC® TIB-202™, American Type Culture Collection, Manassas, VA, USA) was cultivated in RPMI 1640 supplemented with 10% inactivated FBS, 25 mM (D)-glucose, 10 mM HEPES, 1 mM sodium pyruvate, 100 U/mL penicillin, and 100 μg/mL streptomycin, and maintained at a cell density of 0.4 × 10^6 cells/mL. Cells were subcultured every 2 or 3 days and maintained in culture for 2–3 months, according to ATCC® instructions. Nitric oxide (NO) production was measured by quantifying the accumulation of nitrites in culture supernatants using the Griess assay. […] After a 30 min incubation period at room temperature, protected from light, the absorbance was read at 550 nm using a microplate spectrophotometer. The concentration of nitrites present in the supernatants was determined by interpolation of the absorbance of each sample in a sodium nitrite standard curve. The results of four independent experiments, in duplicate, were expressed as the percentage of NO production by cells versus the concentration of the chemicals compared with LPS (100%).

[3] = DPPH radical scavenging assay; conditions: ethanol, 15 min in the dark, 517 nm; ± SD
Experimental: Stock solutions of each compound (100 µM) and DPPH solution (150 µM) were prepared in ethanol. Different concentrations of antioxidant solutions (0.1–50 µM) were prepared to test their antioxidant effect. In a 96-well plate, 100 µL of DPPH working solution was added to a 100 µL sample solution and incubated at room temperature for 15 min in the dark. The absorbance of each sample was measured at 517 nm, in a microplate reader. For the negative control, 100 μL ethanol was added instead of the antioxidant solution. Rutin was used as the positive control. Inhibition curves were constructed, and the half maximal effective concentration (EC50) values were calculated for all samples by linear regression for the three independent assays performed.

[4] = Stability at different pH values (UV-vis absorbance); type: physicochemical; conditions: for pH stability: 100 µM buffered solutions, pH 2 to 8
Experimental: Buffer solutions with pH values between 2 and 8 were prepared and their pH was measured. The buffer solutions were prepared according to Portuguese Pharmacopeia 11.0 specifications. Each compound solution (100 µM) buffered at a specific pH was prepared in triplicate. The solutions were stored at room temperature and protected from light. Aliquots of 3.00 mL were transferred to quartz cuvettes at specific time points, and their absorbance was measured by ultraviolet/visible (UV–vis) spectrophotometry. The blank for each pH corresponded to 3.00 mL of the respective buffer.

Row | SMILES | compatibility with Carbopol 980 (CP) [1] | compatibility with EDTA [1] | Tonset [1] [°C] | Tpeak [1] [°C] | ΔH [1] [J/g] | effect on NO production [2] | reduction of NO production ([2]; relative to LPS = 100%) [%] | EC50 [3] [µM] | pH stability [4] | variations in absorbance ([4]; acidic and neutral pH, 100 µM aqueous buffer) [%] | compatibility with hydroxyethylcellulose (HEC) [1] | compatibility with miglyol 812 (MIG) [1] | compatibility with stearyl alcohol (SA) [1] | compatibility with tocopherol (TP) [1]
1 | O=C1O[C@H]([C@@H](O)CO)C(O)=C1O [AA, Ascorbic acid] | Weak interferences | Weak interferences | 192.9 | 197.1 | -328.6 | inhibited NO production | 30 | 1.54 ± 0.21 | unstable at acidic and neutral pH | > 90 |  |  |  | 
2 | O=C1O[C@H]([C@@H](O)CO)C(O)=C1O[C@H]1O[C@H](CO)[C@@H](O)[C@H](O)[C@H]1O [AAG, 2-O-α-D-glucopyranosyl-L-ascorbic acid] |  | more compatible | 173.0 | 176.4 | -139.8 | inhibited NO production |  | 9.15 ± 0.13 |  |  | Weak interferences | more compatible | Weak interferences | more compatible
3 | O=C1OC(C(COS(=O)(=O)O)OS(=O)(=O)O)C(OS(=O)(=O)O)=C1OC1OC(COS(=O)(=O)O)C(OS(=O)(=O)O)C(OS(=O)(=O)O)C1OS(=O)(=O)O [AAGS, 2-O-α-D-glucopyranosyl-L-ascorbic acid persulfate] | Weak interferences |  | 195.0 | 200.5 | 223.1 |  |  | 5.28 ± 0.36 | improved stability covering a larger range of pH values (pH = 2–6) |  | more compatible; also recorded: favorable compatibility | more compatible | Weak interferences | more compatible
